Reference: PubChem BioAssay AID1919005 (Molecular Pharmacology Branch, DTP, NCI, 2023)
Values joined by “and” are separate entries in the source; they are usually repeats but may differ in a detail not shown here. Identical values can stand only once.

System: 855422-203-R-J1-PDC complex spheroid growth
Test: Anticancer human tumor 855422-203-R-J1-PDC patient-derived bladder carcinoma cell line growth inhibition [AhR]
Conditions: for viability, T/C: stronger effect = lower value
Outline: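 Spheroids combined tumor cells with HUVEC endothelial cells and human MSCs as stroma. AhR antagonists were paired with standard or investigational drugs, each dosed in half-log steps down from near clinical Cmax, or from 10 microM where Cmax was unknown.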

[1] = curve of first compound, second compound 0.1 µM
[2] = curve of first compound, second compound 0.316 µM
[3] = curve of first compound, second compound 1 µM
[4] = curve of first compound, second compound 3.16 µM
[5] = curve of first compound, second compound 10 µM
[6] = second compound 0.1 µM, first compound 0.0316 µM
[7] = second compound 0.1 µM, first compound 0.1 µM
[8] = second compound 0.1 µM, first compound 0.316 µM
[9] = second compound 0.1 µM, first compound 1 µM
[10] = second compound 0.1 µM, first compound 3.16 µM
[11] = second compound 0.1 µM, first compound 10 µM
[12] = second compound 0.316 µM, first compound 0.0316 µM
[13] = second compound 0.316 µM, first compound 0.1 µM
[14] = second compound 0.316 µM, first compound 0.316 µM
[15] = second compound 0.316 µM, first compound 1 µM
[16] = second compound 0.316 µM, first compound 3.16 µM
[17] = second compound 0.316 µM, first compound 10 µM
[18] = second compound 1 µM, first compound 0.0316 µM
[19] = second compound 1 µM, first compound 0.1 µM
[20] = second compound 1 µM, first compound 0.316 µM
[21] = second compound 1 µM, first compound 1 µM
[22] = second compound 1 µM, first compound 3.16 µM
[23] = second compound 1 µM, first compound 10 µM
[24] = second compound 3.16 µM, first compound 0.0316 µM
[25] = second compound 3.16 µM, first compound 0.1 µM
[26] = second compound 3.16 µM, first compound 0.316 µM
[27] = second compound 3.16 µM, first compound 1 µM
[28] = second compound 3.16 µM, first compound 3.16 µM
[29] = second compound 3.16 µM, first compound 10 µM
[30] = second compound 10 µM, first compound 0.0316 µM
[31] = second compound 10 µM, first compound 0.1 µM
[32] = second compound 10 µM, first compound 0.316 µM
[33] = second compound 10 µM, first compound 1 µM
[34] = second compound 10 µM, first compound 3.16 µM
[35] = second compound 10 µM, first compound 10 µM
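Also: spheroids exposed to agents for seven days before readout.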
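For viability, T/C in this document: percent of DMSO vehicle control luminescence viability.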

SMILES | IC50 [1] [nM] | IC50 [2] [nM] | IC50 [3] [nM] | IC50 [4] [nM] | IC50 [5] [nM] | viability, T/C [6] [%] | viability, T/C [7] [%] | viability, T/C [8] [%] | viability, T/C [9] [%] | viability, T/C [10] [%] | viability, T/C [11] [%] | viability, T/C [12] [%] | viability, T/C [13] [%] | viability, T/C [14] [%] | viability, T/C [15] [%] | viability, T/C [16] [%] | viability, T/C [17] [%] | viability, T/C [18] [%] | viability, T/C [19] [%] | viability, T/C [20] [%] | further results
CC(C)c1c(-c2ccccc2)nc2c(C#N)c[nH]n2c1=O + Cc1ccccc1N=Nc1ccc(NC(=O)c2ccnn2C)c(C)c1 | > 10000 | > 10000 | > 10000 | > 10000 | > 10000 | 98.4 | 105 | 94.5 | 92.9 | 89.5 | 89 | 106 | 99 | 96.9 | 104 | 91.2 | 93 | 95.8 | 103 | 96.5 | viability, T/C [21]: 101%; viability, T/C [22]: 91.4%; viability, T/C [23]: 90.5%; viability, T/C [24]: 94.4%; viability, T/C [25]: 93.7%; viability, T/C [26]: 89.7%; viability, T/C [27]: 88.7%; viability, T/C [28]: 89.5%; viability, T/C [29]: 82.1%; viability, T/C [30]: 81.8%; viability, T/C [31]: 83.6%; viability, T/C [32]: 76.9%; viability, T/C [33]: 86%; viability, T/C [34]: 76.5%; viability, T/C [35]: 73.6%
CC1(C)CCC(CN2CCN(c3ccc(C(=O)NS(=O)(=O)c4ccc(NCC5CCOCC5)c([N+](=O)[O-])c4)c(Oc4cnc5[nH]ccc5c4)c3)CC2)=C(c2ccc(Cl)cc2)C1 + CC(CO)NC(=O)c1cc(-c2ccc(Cl)cc2)nn(-c2cnn(C)c2)c1=O | 6140 | 6190 | 6300 | 6250 | 5940 | 104 | 100 | 110 | 97.8 | 102 | 11.8 | 97.3 | 96.9 | 109 | 100 | 109 | 12.3 | 101 | 103 | 103 | viability, T/C [21]: 109%; viability, T/C [22]: 106%; viability, T/C [23]: 13.2%; viability, T/C [24]: 104%; viability, T/C [25]: 111%; viability, T/C [26]: 108%; viability, T/C [27]: 103%; viability, T/C [28]: 105%; viability, T/C [29]: 12.3%; viability, T/C [30]: 94.8%; viability, T/C [31]: 104%; viability, T/C [32]: 88.3%; viability, T/C [33]: 101%; viability, T/C [34]: 93.9%; viability, T/C [35]: 13.7%
NS(=O)(=O)OCC1CC(n2ccc3c(NC4CCc5ccccc54)ncnc32)CC1O (stereo unspecified) + Cc1cncc(-c2nc(NCCc3c[nH]c4ccccc34)c3ncn(C(C)C)c3n2)c1 | 860 | 647 | 499 | 216 | < 31.6 | 114 | 119 | 78.2 | 50.4 | 12.8 | 10.9 | 96.5 | 113 | 52.1 | 50.9 | 10.8 | 9.91 | 98.3 | 106 | 50.7 | viability, T/C [21]: 40.3%; viability, T/C [22]: 11.7%; viability, T/C [23]: 9.3%; viability, T/C [24]: 80.2%; viability, T/C [25]: 75.9%; viability, T/C [26]: 37.1%; viability, T/C [27]: 12.5%; viability, T/C [28]: 8.33%; viability, T/C [29]: 8.5%; viability, T/C [30]: 9.89%; viability, T/C [31]: 4.7%; viability, T/C [32]: 3.03%; viability, T/C [33]: 0.63%; viability, T/C [34]: 1.67%; viability, T/C [35]: 1.45%
COc1ccc([C@@H](O)c2cc(-c3ncnc4cc(N5CCOCC5)ccc34)c(F)cc2Cl)nn1 + Cc1cncc(-c2nc(NCCc3c[nH]c4ccccc34)c3ncn(C(C)C)c3n2)c1 | > 10000 | 9440 | 6090 | 2410 | < 31.6 | 101 | 90.6 | 93.7 | 83.8 | 76.7 | 50.9 | 97.1 | 88.6 | 77.2 | 86.8 | 74.5 | 47.8 | 90.5 | 94.6 | 79.9 | viability, T/C [21]: 74.5%; viability, T/C [22]: 69.1%; viability, T/C [23]: 37.6%; viability, T/C [24]: 79.5%; viability, T/C [25]: 85.6%; viability, T/C [26]: 67.2%; viability, T/C [27]: 54.7%; viability, T/C [28]: 52.6%; viability, T/C [29]: 27.9%; viability, T/C [30]: 6.06%; viability, T/C [31]: 3.37%; viability, T/C [32]: 1.79%; viability, T/C [33]: 0.4%; viability, T/C [34]: 6.5%; viability, T/C [35]: 9.38%
CC(C)CC(NC(=O)C(Cc1ccccc1)NC(=O)c1cnccn1)B(O)O (stereo unspecified) |  |  |  |  |  |  |  |  |  |  |  |  |  |  |  |  |  |  |  |  | viability, T/C (compound 0.000949 µM): 110% and 101% and 118%; viability, T/C (compound 0.00949 µM): 0.21% and 0.27% and 0.11%; viability, T/C (compound 0.03 µM): 0.16% and 0.14% and 0.42%; viability, T/C (compound 0.0949 µM): 0.15% and 0.14% and 0.12%; viability, T/C (compound 0.3 µM): 0.19% (2×) and 0.21%; IC50 (curve of compound): 2.79 nM and 5.76 nM and 1.85 nM

Further compounds by falling IC50 [1], results first:

IC50 [1] [nM] | IC50 [2] [nM] | IC50 [3] [nM] | IC50 [4] [nM] | IC50 [5] [nM] | SMILES | viability, T/C [6] [%] | viability, T/C [7] [%] | viability, T/C [8] [%] | viability, T/C [9] [%] | viability, T/C [10] [%] | viability, T/C [11] [%] | viability, T/C [12] [%] | viability, T/C [13] [%] | viability, T/C [14] [%] | viability, T/C [15] [%] | viability, T/C [16] [%] | viability, T/C [17] [%] | viability, T/C [18] [%] | viability, T/C [19] [%] | viability, T/C [20] [%] | further results
3890 | 4060 | 4130 | 2870 | 3100 | Nc1ccccc1NC(=O)c1ccc(CNC(=O)OCc2cccnc2)cc1 + CC(CO)NC(=O)c1cc(-c2ccc(Cl)cc2)nn(-c2cnn(C)c2)c1=O | 94.2 | 91.2 | 92 | 89.5 | 57.9 | 14.4 | 92.2 | 91.6 | 90.1 | 89.2 | 60.7 | 11.2 | 95.2 | 91.8 | 91.7 | viability, T/C [21]: 88.7%; viability, T/C [22]: 61.5%; viability, T/C [23]: 11.7%; viability, T/C [24]: 94%; viability, T/C [25]: 94.5%; viability, T/C [26]: 86.6%; viability, T/C [27]: 77.2%; viability, T/C [28]: 47.2%; viability, T/C [29]: 9.66%; viability, T/C [30]: 88.9%; viability, T/C [31]: 92.6%; viability, T/C [32]: 88.5%; viability, T/C [33]: 74.2%; viability, T/C [34]: 50.2%; viability, T/C [35]: 8.41%
3020 | 2530 | 1970 | 1030 | 484 | NS(=O)(=O)OCC1CC(n2ccc3c(NC4CCc5ccccc54)ncnc32)CC1O (stereo unspecified) + Cc1ccccc1N=Nc1ccc(NC(=O)c2ccnn2C)c(C)c1 | 104 | 110 | 124 | 98.5 | 48.5 | 16.3 | 102 | 113 | 120 | 90.3 | 40.9 | 16.5 | 101 | 115 | 109 | viability, T/C [21]: 77.7%; viability, T/C [22]: 31.1%; viability, T/C [23]: 15.3%; viability, T/C [24]: 105%; viability, T/C [25]: 110%; viability, T/C [26]: 78.8%; viability, T/C [27]: 54.2%; viability, T/C [28]: 20.7%; viability, T/C [29]: 12%; viability, T/C [30]: 73.8%; viability, T/C [31]: 80.2%; viability, T/C [32]: 56.5%; viability, T/C [33]: 35.2%; viability, T/C [34]: 13.6%; viability, T/C [35]: 12.1%
551 | 573 | 498 | 327 | 251 | COc1cc(C2c3cc4c(cc3C(OC3OC5COC(C)OC5C(O)C3O)C3COC(=O)C23)OCO4)cc(OC)c1O (stereo unspecified) + CC(CO)NC(=O)c1cc(-c2ccc(Cl)cc2)nn(-c2cnn(C)c2)c1=O | 104 | 93.5 | 72.9 | 25.6 | 12.7 | 6.98 | 94.2 | 96 | 75.6 | 25.4 | 12.1 | 5.1 | 98.5 | 103 | 64.3 | viability, T/C [21]: 25.6%; viability, T/C [22]: 11.1%; viability, T/C [23]: 4.66%; viability, T/C [24]: 89.5%; viability, T/C [25]: 91.8%; viability, T/C [26]: 48.2%; viability, T/C [27]: 19.4%; viability, T/C [28]: 9.59%; viability, T/C [29]: 3.77%; viability, T/C [30]: 96.2%; viability, T/C [31]: 82.3%; viability, T/C [32]: 37.1%; viability, T/C [33]: 24.3%; viability, T/C [34]: 8.67%; viability, T/C [35]: 4.32%
